A compilation of properties of binary mixtures (doi:10.3390/app10238342)

Assay: xn = mol fraction of the nth substance listed
Details: 96.7 kPa

CS(C)=O + CC(=O)[O-].CCCCCCn1cc[n+](C)c1
x2 = 0
Details	viscosity [mPa·s]
303.15 K	1.81
308.15 K	1.66
313.15 K	1.52
318.15 K	1.4
323.15 K	1.3
328.15 K	1.2
338.15 K	1.04

CC(=O)[O-].CCCCCCn1cc[n+](C)c1 + CS(C)=O
viscosity [mPa·s]
Details	x1 = 0.057	x1 = 0.187	x1 = 0.257	x1 = 0.341	x1 = 0.446	x1 = 0.58	x1 = 0.757	x1 = 0.868	x1 = 1
303.15 K	2.7	4.6	9.2	18.7	41	74	250	420	800
308.15 K	2.46	–	–	15.8	32	60	182	290	530
313.15 K	–	3.7	6.9	13	27	–	133	212	370
318.15 K	2	3.2	5.9	10.8	–	41	–	156	260
323.15 K	1.86	2.9	5.2	9.3	17.9	35	78	115	190
328.15 K	1.72	2.6	4.7	8.1	14.7	29	60	88	145
333.15 K	1.58	2.31	4.2	–	–	25	47	68	110
338.15 K	1.47	–	3.6	6.4	10.9	21.3	–	55	88
